Measured values from patent publication US7122657B2, “UDP-glucose aglycon-glucosytransferase” (priority 1999, dated 2006).

Experiments:
[1] = tested on: glucosyltransferase activity of desalted crude etiolated Sorghum seedling extract; assay: Substrate specificity of desalted crude etiolated Sorghum seedling extract (TLC, 14C-UDP-glucose); format: biochemical, Sorghum bicolor; set-up: key: ▪: indicate that a radiolabelled product was visualised after incubation with the respective aglycone substrate; □: indicate that no radiolablled products could be detected under the experimental conditions employed; settings: aglycone substrate
Protocol: (§1) Generally a 20 μl reaction mixture including • 100 mM Tris HCl (pH 7.9), • 1–5 μM ^14C-UDP-glucose (11.0 GBq mmol^−1, Amersham LIFE SCIENCE), • 0–300 μM UDP-glucose, • 0–20 mM p-hydroxymandelonitrile (dissolved in water, freshly prepared), • 25 mM γ-gluconolactone, • 0–1 mg BSA and • 0.5–10 μl of protein preparation, is incubated at 30° C. between 2 minutes and 2 hours. Thereafter the reaction is terminated by the addition of 1/10 of the reaction volume of 10% acetic acid. The same assay conditions are used to determine the glucosylation of mandelonitrile, benzoic acid, benzylalcohol, geraniol and a number of other aglycons.
(§2) For TLC analysis the reaction mixture is applied to Silica Gel 60 F254 plates (Merck), dried and eluted in a solvent containing ethyl acetate:acetone:dichloromethane:methanol:[…] (40:30:12:10:8, v/v). Plates are dried for one hour at room temperature and exposed to storage phosphorlmaging plates (Molecular Dynamics) prior to scanning on a Storm 860 Phosphorimager (Molecular Dynamics).
(§3) Substrate Specificity of Recombinant sbHMNGT Compared to Desalted Crude Etiolated Sorghum Seedling Extract
(§4) Glucosyltransterase activity was determined by TLC using ^14C-UDP-glucose. Filled boxes in Table 1 below (▪) indicate that a radiolabelled product was visualised after incubation with the respective aglycone substrate. Empty boxes (□) indicate that no radiolablled products could be detected under the experimental conditions employed. Figures in brackets indicate the relative Vmax for each aglycon with calculated standard deviations.

[2] = target: T1, recombinant sbHMNGT (UDP-glucose:p-hydroxymandelonitrile-glucosyltransferase) (Sorghum bicolor, UniProt Q9SBL1); assay: Substrate specificity of recombinant sbHMNGT (TLC, 14C-UDP-glucose); format: biochemical; set-up: key to ACTIVITY Recombinant sbHMNGT (radiolabelled glucoside product): ▪: indicate that a radiolabelled product was visualised after incubation with the respective aglycone substrate; □: indicate that no radiolablled products could be detected under the experimental conditions employed; settings: for ACTIVITY Recombinant sbHMNGT (radiolabelled glucoside product): 1.25 mM aglycone, 100 ng recombinant sbHMNGT, 20 min at 30° C., TLC
T1 construct: are used to amplify a 1500 bp full-length sbHMNGT insert by PCR; made in house; host or cells: E. coli JM109, vector pSP19g10L
Protocol: as §1
To determine the substrate specificity of recombinant sbHMNGT incubation lasts for 20 min at 30° C. and the general protocol above is adapted to include • 1.25 mM aglycone (dissolved in ethanol except for flavonoids which are dissolved in ethylene glycol monoether), • 1.25 μM ^14C-UDP-glucose, • 12.5 μM UDP-glucose, • 100 ng recombinant sbHMNGT, and • 4 μg BSA.
as §2, §3, §4

[3] = target: T2, sbHMNGT (Sorghum bicolor, UniProt Q9SBL1); assay: sbHMNGT activity assay during purification (LSC); format: biochemical; set-up: from tissue; host or cells: etiolated Sorghum bicolor seedling shoots; ammonium sulphate, Q-sepharose and Reactive Yellow 3 fractions; settings: native sbHMNGT
Protocol: as §1
For analysis by liquid scintillation counting (LSC) reaction mixtures are extracted with 400 μl of ethyl acetate to separate glucosides from unincorporated ^14C-UDP-glucose. 2 ml of Ecoscint A (National Diagnostics, New Jersey, USA) are added to 250 μl of each ethyl acetate extract and analyzed using a Win Spectral 1414 (Wallac) liquid scintillation counter. Mandelonitrile is used as substrate to assay fractions generated by liquid chromatography.
Except where indicated all steps are carried out at 4° C. […] Furthermore, the absence of a hydroxyl group at the para-position of the benzene ring rules out the possibility of p-glucosyloxymandelonitrile synthesis, which would be indistinguishable from dhurrin using the LSC assay.

[4] = target: T2, sbHMNGT; assay: Quantitative determination of the activity of recombinant sbHMNGT (Vmax); format: biochemical; set-up: are used to amplify a 1500 bp full-length sbHMNGT insert by PCR; made in house; host or cells: E. coli JM109, vector pSP19g10L; settings: for relative Vmax with calculated standard deviations: relative to p-hydroxymandelonitrile, 1, 5 or 10 mM aglycone, 4 minutes at 30° C.
Protocol: as §1
Quantitative determination of the activity of recombinant sbHMNGT is carried out using 4 minutes incubation at 30° C. Analyses are carried out as for the determination of substrate specificity except that the reaction mixtures are composed as folows: • 1, 5 or 10 mM aglycone, • 5 μM ^14C-UDP-glucose, • 0.2 mM UDP-glucose, • 200 ng recombinant sbHMNGT, and • 24 μg BSA.
as §4

T2 sequence (Q9SBL1 whole entry): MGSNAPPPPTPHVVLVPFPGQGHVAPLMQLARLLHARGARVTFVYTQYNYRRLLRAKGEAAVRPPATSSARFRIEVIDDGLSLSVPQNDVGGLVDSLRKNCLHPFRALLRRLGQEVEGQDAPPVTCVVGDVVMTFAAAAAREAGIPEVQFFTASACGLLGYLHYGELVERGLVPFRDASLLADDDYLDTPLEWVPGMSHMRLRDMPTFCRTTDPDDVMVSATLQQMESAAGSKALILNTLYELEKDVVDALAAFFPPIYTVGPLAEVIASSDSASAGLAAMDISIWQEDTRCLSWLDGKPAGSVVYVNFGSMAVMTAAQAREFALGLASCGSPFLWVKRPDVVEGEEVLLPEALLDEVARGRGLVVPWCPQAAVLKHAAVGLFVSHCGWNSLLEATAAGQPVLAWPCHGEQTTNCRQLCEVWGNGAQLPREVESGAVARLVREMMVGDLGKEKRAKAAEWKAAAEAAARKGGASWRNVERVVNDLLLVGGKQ
T1 sequence (Q9SBL1 whole entry): as above

Structure (SMILES) | ACTIVITY Crude Sorghum extract (radiolabelled glucoside product) [1] | ACTIVITY Recombinant sbHMNGT (radiolabelled glucoside product) [2] | ability of sbHMNGT to glucosylate the aglycon [2] | substrate quality compared with p-hydroxymandelonitrile [3] | relative Vmax with calculated standard deviations ([4]; recombinant sbHMNGT) | rate of glucosylation compared with the cyanohydrins [4] | Vmax ([4]; recombinant sbHMNGT)
Oc1ccc(C=Cc2cc(O)cc(O)c2)cc1 [resveratrol] | ▪ | □ |  |  |  |  | 
O=C(O)/C=C/c1ccc(O)c(O)c1 [caffeic acid] | ▪ | □ |  |  |  |  | 
OCc1ccc(O)cc1 [p-hydroxybenzyl alcohol] | ▪ | ▪ |  |  |  |  | 
O=C(O)c1ccc(O)cc1 [p-hydroxybenzoic acid] | ▪ | □ |  |  |  |  | 
O=Cc1ccc(O)cc1 [p-hydroxybenzaldehyde] | ▪ | □ |  |  |  |  | 
COc1cc(C=O)ccc1O [vanillin] | ▪ | ▪ | glucosylate |  |  |  | 
CCC/C=C/CO [trans-2-hexen-1-ol] | ▪ | ▪ |  |  |  |  | 
O=C(O)C=Cc1ccccc1O [2-hydroxy cinnamic acid] | ▪ | □ |  |  |  |  | 
O=C(O)c1cc(O)ccc1O [gentisic acid] | □ | □ |  |  |  |  | 
CC(C)(O)C#N [acetone cyanohydrin] | □ | □ |  |  |  |  | 
CC(C)=CCCC(C)CCO (centres unmarked) [p-citronellol] | ▪ | ▪ | glucosylate |  |  |  | 
CCC=C(C)CCO [3-methyl-3-hexen-1-ol] | ▪ | ▪ |  |  |  |  | 
N#CC(O)c1ccccc1 (centres unmarked) [mandelonitrile] | ▪ | ▪ |  | equally good substrate | (77.8 ± 8.6%) |  | 
CC/C=C\CCO [cis-3-hexen-1-ol] | ▪ | ▪ |  |  |  |  | 
O=C1C[C@@H](c2ccc(O)cc2)Oc2cc(O)cc(O)c21 [naringenin] | ▪ | □ |  |  |  |  | 
O=c1cc(-c2ccc(O)cc2)oc2cc(O)cc(O)c12 [apigenin] | ▪ | □ |  |  |  |  | 

Structure (SMILES) | ACTIVITY Crude Sorghum extract (radiolabelled glucoside product) [1] | ACTIVITY Recombinant sbHMNGT (radiolabelled glucoside product) [2] | ability of sbHMNGT to glucosylate the aglycon [2] | substrate quality compared with p-hydroxymandelonitrile [3] | relative Vmax with calculated standard deviations ([4]; recombinant sbHMNGT) | rate of glucosylation compared with the cyanohydrins [4] | Vmax ([4]; recombinant sbHMNGT)
O=C(O)c1ccccc1O [salicylic acid] | ▪ | □ |  |  |  |  | 
CC(C)=CCC/C(C)=C/CO [geraniol] | ▪ | ▪ | glucosylate |  | (11.0 ± 0.5%) | lower than those observed for the cyanohydrins | 
CC(C)=CCC/C(C)=C\CO [nerol] | ▪ | ▪ | glucosylate |  |  |  | 
O=C(O)c1ccccc1 [benzoic acid] | ▪ | ▪ | glucosylate |  | (4.2 ± 0.8%) | lower than those observed for the cyanohydrins | 
O=c1c(O)c(-c2ccc(O)c(O)c2)oc2cc(O)cc(O)c12 [quercetin] | ▪ | □ |  |  |  |  | 
OCc1ccccc1 [benzyl alcohol] | ▪ | ▪ | glucosylate |  | (13.1 ± 2.1%) | lower than those observed for the cyanohydrins | 
COc1ccc(-c2coc3cc(O)cc(O)c3c2=O)cc1 [biochanin A] | ▪ | □ |  |  |  |  | 
O=C(O)C(O)c1ccc(O)cc1 (centres unmarked) [p-hydroxymandelic acid] | ▪ | □ |  |  |  |  | 
COc1cccc(CO)c1O [2-hydroxy-3-methoxybenzlalcohol] | ▪ | ▪ | glucosylate |  |  |  | 
Oc1ccc(O)cc1 [hydroquinone] | ▪ | □ |  |  |  |  | 
COc1cc(C(=O)O)ccc1O [vanillic acid] | ▪ | ▪ | glucosylate |  |  |  | 
C[C@H]1CC[C@]2(NC1)O[C@H]1C[C@H]3[C@@H]4CC[C@H]5C[C@@H](O)CC[C@]5(C)[C@H]4CC[C@]3(C)[C@H]1[C@@H]2C [tomatidine] | ▪ | □ |  |  |  |  | 
CCCCCCO [1-hexanol] | ▪ | ▪ |  |  |  |  | 
CCCC(C)=CCO [3-methyl-2-hexen-1-ol] | ▪ | ▪ |  |  |  |  | 
N#CC(O)c1ccc(O)cc1 (centres unmarked) [p-hydroxymandelonitrile] | ▪ | ▪ |  |  | (100 ± 7.2%) |  | 1500 mol of product/mol of sbHMNGT/sec
